Test results reported in patent publication US10961242B2, “Compounds as autotaxin inhibitors and pharmaceutical compositions comprising the same” (LegoChem Biosciences, Inc., priority 2018, dated 2021).
Counter-ions that a name gives are not always drawn. Like-named read-outs stand apart in the source and are kept apart here.

Experiments:
human ENPP2 = human ENPP2 (Homo sapiens (Human), UniProt Q13822); test: Inhibitory activity on human ENPP2 (FS-3 assay); type: biochemical
Protocol: Two-fold dilution of each test compound solution (10 μM, 100% dimethyl sulfoxide) is carried out on 96-well V bottom plate (Costar 3363). After ten-fold dilution of each the test compound solution (100% dimethyl sulfoxide) with deionized distilled water, 10 μL of the diluted each mpound solution (10% dimethyl sulfoxide) was aliquoted to a black flat bottom 96-well plate (Costar 3915).

human ATX = human ATX (Homo sapiens (Human), UniProt Q13822); test: Bis-pNPP assay; type: biochemical; settings: bis-pNPP substrate, read-out: Enzymatic assay (IC50) bis-pNPP
Protocol: Eight-fold dilution of each test compound solution (10 μM, 100% dimethyl sulfoxide) is carried out on 96-well V bottom plate (Costar 3363). After […] of each test compound solution (100% dimethyl sulfoxide) with deionized distilled water, 10 μL of the diluted each test compound solution (10% dimethyl sulfoxide) was aliquoted to a black flat bottom 96-well plate (Costar 3915). 50 μL of 60 mM Tris-HCl (pH9.0) buffer was added thereto, and subsequently 20 μL of 3.75 nM human ATX solution (buffer solution: 50 mM Tris-HCl (pH8.5), 5 mM CaCl2, 2.5 mM MgCl2, 0.01% Brij35) and 20 μL of 25 mM Bis-pNPP (bis(p-Nitrophenyl)-phosphate sodium salt) solution (buffer solution: 50 mM Tris-HCl (pH9.0)) were added thereto, respectively, followed by mixing. […] Furthermore, IC50 values that are shown in Table 3 were calculated using Grafit5 Software based on the inhibitory activity percentage ratio.

[1] = test system: LPA production in mouse plasma; test: Ex-vivo assay (LPC assay) in mouse plasma; type: biochemical; settings: LPA 18:1
Protocol: After 100-fold dilution of each test compound solution (5 μL) (10 mM, 100%, dimethyl sulfoxide) with 495 μL of methanol, 3 μL of the diluted methanol solution (1% dimethyl sulfoxide) was mixed with 57 μL of human or mouse blood serum solution in a 1.5 mL tube. The mixed test compound solution was serially diluted, 12 μL for each, with 48 μL of 100% blood serum to have 5 different concentrations, and each tube was kept for 15 minutes in a water bath with constant temperature of 37° C. Subsequently, a solution prepared by diluting 10 mg/mL 18:1 LPC solution (50% ethanol) with blood serum to have concentration of 375 μg/mL was aliquoted in an amount of 2 μL to each tube so as to have 50 μL. Each tube was kept for 3 hours in a water bath at 37° C. to allow a reaction. To the tube obtained after the reaction, 100 μL of 0.5 μM 17:0 LPA solution (chloroform/methanol/water=65/35/8) was aliquoted and mixed therein. Centrifuge was carried out for 10 minutes using a centrifuge at conditions of 14,000 rpm and 4° C. 100 μL of 50% methanol solution is aliquoted first to a 96-well polypropylene plate (Agilent Technology 5042-1385), and the supernatant (50 μL) in a tube after the centrifuge was carefully transferred to the plate followed by mixing. After covering it with Well cap (Thermo 276011), analysis was carried out by LC-MS/MS (Agilent 1260).
The test was carried out in the same process as Test example 2 to obtain the IC50 values in the following table 4.

[2] = Microsomal stability, human liver microsomes; type: in vitro ADME; settings: both sexes, pH 7.4; human liver microsomes (h), 0.5 mg/mL, NADPH regenerating system; read-out: MS (microsomal stability) t1/2
Protocol: (§1) A 2.5 mM stock solution of test compound in DMSO is diluted to 25 uM with 100 mM potassium phosphate buffer (pH 7.4) containing 5 mM EDTA. This solution was mixed with reaction mixtures (final concentration 1 μM). The incubation mixtures (final volume 700 μL) of test compound with liver microsomes [Xenotech; rat (male SD), human (mixed gender)] consisted of liver microsomes (0.5 mg/mL), substrate (Compound 4, […]), NADPH regenerating system (1.3 mM NADP+, 3.3 mM Glucose-6-phosphate, 3.3 mM MgCl2, 0.4 U/ml Glucose-6-phosphate dehydrogenase) in 81.3 mM potassium phosphate buffer (pH 7.4) containing 1 mM EDTA in duplicates. The reaction was initiated by addition of the NADPH regenerating system after preincubation at 37° C. for 10 min with test compounds. 100 uL of aliquot of the sample was removed at 0, 5, 10, 20, 30 and 60 min. The reaction was stopped by addition of 200 uL of acetonitrile containing internal standard (0.3 uM of Dextromethorphan). Each sample was mixed and centrifuged at 14000 rpm for 10 min. The resulting supernatant was analyzed by the LC-MS/MS method for determination of loss of parent compound. % parent remaining was calculated at 6 point time testing was done for T½ determination.

[3] = Microsomal stability, rat liver microsomes; type: in vitro ADME; settings: male, SD, pH 7.4; rat liver microsomes (r), 0.5 mg/mL, NADPH regenerating system; read-out: MS (microsomal stability) t1/2
Protocol: as §1

[4] = FS-3 assay, same process as Test example 1, read-out: Enzymatic assay (IC50) FS-3

## O=C(Cn1cc(-c2cnc(NC3Cc4ccccc4C3)nc2)c(-c2ccncc2)n1)N1CCc2[nH]nnc2C1 [Compound 96, 2-(4-{2-[(2,3-dihydro-1H-inden-2-yl)amino]pyrimidin-5-yl}-3-(pyridin-4-yl)-1H-pyrazol-1-yl)-1-{1H,4H,5H,6H,7H-[1,2,3]triazolo[4,5-c]pyridin-5-yl}ethan-1-one]
Human ENPP2; [4]
  IC50: 2.02 nM
Human ATX
  IC50: < 1.56 nM
[1]
  IC50: 3.65 nM
[2]
  half-life at 1 µM: 22.2 min
[3]
  half-life at 1 µM: 30 ± 1.57 min

## O=C(Cn1cc(-c2cnc(NC3Cc4ccccc4C3)nc2)c(C2CCNCC2)n1)N1CCc2[nH]nnc2C1 [Compound 98, 2-(4-{2-[(2,3-dihydro-1H-inden-2-yl)amino]pyrimidin-5-yl}-3-(piperidin-4-yl)-1H-pyrazol-1-yl)-1-{1H,4H,5H,6H,7H-[1,2,3]triazolo[4,5-c]pyridin-5-yl}ethan-1-one]
Human ENPP2; [4]
  IC50: 9.39 nM
Human ATX
  IC50: < 1.56 nM
[2]
  half-life at 1 µM: > 60 min
[3]
  half-life at 1 µM: > 60 min

## NC1CCC(c2nn(CC(=O)N3CCc4[nH]nnc4C3)cc2-c2cnc(NC3Cc4ccccc4C3)nc2)CC1 (stereo not drawn) [Compound 99, 2-[3-(4-aminocyclohexyl)-4-{2-[(2,3-dihydro-1H-inden-2-yl)amino]pyrimidin-5-yl}-1H-pyrazol-1-yl]-1-{1H,4H,5H,6H,7H-[1,2,3]triazolo[4,5-c]pyridin-5-yl}ethan-1-one]
Human ENPP2; [4]
  IC50: 2.8 nM
Human ATX
  IC50: 5.59 nM

## O=C(Cn1cc(-c2cnc(NC3Cc4ccccc4C3)nc2)c(NC2CCC2)n1)N1CCc2[nH]nnc2C1 [Compound 100, 2-[3-(cyclobutylamino)-4-{2-[(2,3-dihydro-1H-inden-2-yl)amino]pyrimidin-5-yl}-1H-pyrazol-1-yl]-1-{1H,4H,5H,6H,7H-[1,2,3]triazolo[4,5-c]pyridin-5-yl}ethan-1-one]
Human ENPP2; [4]
  IC50: 1.74 nM
Human ATX
  IC50: 3.6 nM
[2]
  half-life at 1 µM: 16.4 min
[3]
  half-life at 1 µM: 10.3 ± 0.72 min

## CCN(CC)c1nn(CC(=O)N2CCc3[nH]nnc3C2)cc1-c1cnc(NC2Cc3ccccc3C2)nc1 [Compound 106, 2-[3-(diethylamino)-4-{2-[(2,3-dihydro-1H-inden-2-yl)amino]pyrimidin-5-yl}-1H-pyrazol-1-yl]-1-{1H,4H,5H,6H,7H-[1,2,3]triazolo[4,5-c]pyridin-5-yl}ethan-1-one]
Human ENPP2; [4]
  IC50: 2.57 nM
Human ATX
  IC50: 2.27 nM
[2]
  half-life at 1 µM: 4.2 min
[3]
  half-life at 1 µM: 3.9 ± 0.03 min

## Cc1nc(-c2cnc(NC3Cc4ccccc4C3)nc2)cn1CC(=O)N1CCc2[nH]nnc2C1 [Compound 107, 2-(4-{2-[(2,3-dihydro-1H-inden-2-yl)amino]pyrimidin-5-yl}-2-methyl-1H-imidazol-1-yl)-1-{1H,4H,5H,6H,7H-[1,2,3]triazolo[4,5-c]pyridin-5-yl}ethan-1-one]
Human ENPP2; [4]
  IC50: 1.56 nM
Human ATX
  IC50: 4.87 nM

## O=C(CO)N1CCN(C(=O)Cn2cc(-c3cnc(NC4Cc5ccccc5C4)nc3)c(-c3ccncc3)n2)CC1 [Compound 115, 1-{4-[2-(4-{2-[(2,3-dihydro-1H-inden-2-yl)amino]pyrimidin-5-yl}-3-(pyridin-4-yl)-1H-pyrazol-1-yl)acetyl]piperazin-1-yl}-2-hydroxyethan-1-one]
Human ENPP2; [4]
  IC50: 3.04 nM
Human ATX
  IC50: 66.8 nM
[1]
  IC50: 125 nM
[2]
  half-life at 1 µM: > 60 min
[3]
  half-life at 1 µM: > 60 min

## O=C(Cn1cc(-c2cnc(NC3Cc4ccccc4C3)nc2)c(-c2ccccn2)n1)N1CCc2[nH]nnc2C1 [Compound 116, 2-(4-{2-[(2,3-dihydro-1H-inden-2-yl)amino]pyrimidin-5-yl}-3-(pyridin-2-yl)-1H-pyrazol-1-yl)-1-{1H,4H,5H,6H,7H-[1,2,3]triazolo[4,5-c]pyridin-5-yl}ethan-1-one]
Human ENPP2; [4]
  IC50: < 1.56 nM
Human ATX
  IC50: < 1.56 nM
[1]
  IC50: 7.1 nM
[2]
  half-life at 1 µM: 33 min
[3]
  half-life at 1 µM: 25.2 ± 0.69 min

## O=C(Cc1cn(-c2ccc(Cl)cc2)c(-c2cnc(NC3Cc4ccccc4C3)nc2)n1)N1CCc2[nH]nnc2C1 [Compound 117, 2-[1-(4-chlorophenyl)-2-{2-[(2,3-dihydro-1H-inden-2-yl)amino]pyrimidin-5-yl}-1H-imidazol-4-yl]-1-{1H,4H,5H,6H,7H-[1,2,3]triazolo[4,5-c]pyridin-5-yl}ethan-1-one]
Human ENPP2; [4]
  IC50: 1.84 nM
Human ATX
  IC50: > 100 nM

## O=C(CO)N1CCC(c2nn(CC(=O)N3CCc4[nH]nnc4C3)cc2-c2cnc(NC3Cc4ccccc4C3)nc2)CC1 [Compound 118, 1-[4-(4-{2-[(2,3-dihydro-1H-inden-2-yl)amino]pyrimidin-5-yl}-1-(2-oxo-2-{1H,4H,5H,6H,7H-[1,2,3]triazolo[4,5-c]pyridin-5-yl}ethyl)-1H-pyrazol-3-yl)piperidin-1-yl]-2-hydroxyethan-1-one]
Human ENPP2; [4]
  IC50: < 1.56 nM
Human ATX
  IC50: 5.3 nM

## O=C(O)c1ccc(-c2nn(CC(=O)N3CCc4[nH]nnc4C3)cc2-c2cnc(NC3Cc4ccccc4C3)nc2)cc1 [Compound 119, 4-(4-{2-[(2,3-dihydro-1H-inden-2-yl)amino]pyrimidin-5-yl}-1-(2-oxo-2-{1H,4H,5H,6H,7H-[1,2,3]triazolo[4,5-c]pyridin-5-yl}ethyl)-1H-pyrazol-3-yl)benzoic Acid]
Human ENPP2; [4]
  IC50: < 1.56 nM
Human ATX
  IC50: 9.19 nM

## NNC(=O)C1=CCN(C(=O)Cc2nnc(-c3cnc(NC4Cc5ccccc5C4)nc3)o2)CC1 [Compound 120, 1-[2-(5-{2-[(2,3-dihydro-1H-inden-2-yl)amino]pyrimidin-5-yl}-1,3,4-oxadiazol-2-yl)acetyl]-1,2,3,6-tetrahydropyridine-4-carbohydrazide Hydrochloride]
Human ENPP2
  IC50: 25.9 nM
Human ATX
  IC50: 380 nM
